From US7211572B2 (Japan Tobacco Inc., priority 2003, dated 2007)
Structures can show the parent of a compound that is named as a salt.

Each compound was assayed against T1, HIV integrase (Human immunodeficiency virus type 1 group M subtype B, UniProt P12497, F1332H) (assay: Determination of enzyme (HIV integrase) inhibitory activity). Details: recombinant HIV integrase (F185H), strand transfer ELISA, absorbance at 450 nm.
T1 construct: HIV integrase full length gene; made in house; host or cells: Escherichia coli BL21(DE3), plasmid pET21a-INH
Type: biochemical
Summary of the method: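 Full-length integrase with F185H, expressed in E. coli and purified, was reacted for 60 min at 37 °C with compound and biotinylated donor DNA bound to streptavidin plates. Target DNA was added for 10 min, then anti-digoxigenin-peroxidase detection at A450; IC50 from % inhibition versus enzyme-free blank.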

| Structure (SMILES) | IC50 [nM] |
| --- | --- |
| O=c1c(Br)cn2ccn(Cc3cccc(Cl)c3)c(=O)c2c1O [Example 94, 7-bromo-2-(3-chlorobenzyl)-9-hydroxy-2H-pyrido[1,2-a]pyrazine-1,8-dione hydrochloride] | 10 to 100 |
| O=c1ccn2ccn(CCCc3c(F)cccc3Cl)c(=O)c2c1O [Example 95, 2-[3-(2-chloro-6-fluorophenyl)propyl]-9-hydroxy-2H-pyrido[1,2-a]pyrazine-1,8-dione hydrochloride] | 10 to 100 |
| O=c1c(-c2ccccc2)cn2ccn(Cc3cccc(Cl)c3)c(=O)c2c1O [Example 96, 2-(3-chlorobenzyl)-9-hydroxy-7-phenyl-2H-pyrido[1,2-a]pyrazine-1,8-dione hydrochloride] | < 10 |
| CN(C)C(=O)c1cn(Cc2cccc(Cl)c2)c(=O)c2c(O)c(=O)ccn12 [Example 97, N,N-dimethyl-2-(3-chlorobenzyl)-9-hydroxy-1,8-dioxo-1,8-dihydro-2H-pyrido[1,2-a]pyrazine-4-carboxamide] | 10 to 100 |
| O=C(O)c1cn(Cc2cccc(Cl)c2)c(=O)c2c(O)c(=O)ccn12 [Example 98, 2-(3-chlorobenzyl)-9-hydroxy-1,8-dioxo-1,8-dihydro-2H-pyrido[1,2-a]pyrazine-4-carboxylic acid] | 10 to 100 |
| O=c1c(O)c2c(=O)n(Cc3cccc(Cl)c3)ccn2c2ccccc12 [Example 99, 3-(3-chlorobenzyl)-5-hydroxy-3H-pyrazino[1,2-a]quinoline-4,6-dione hydrochloride] | 10 to 100 |
| O=c1ncn2ccn(Cc3cccc(Cl)c3)c(=O)c2c1O [Example 100, 2-(3-chlorobenzyl)-9-hydroxy-2H-pyrazino[1,2-c]pyrimidine-1,8-dione hydrochloride] | 10 to 100 |
| O=Cc1cn(Cc2cccc(Cl)c2)c(=O)c2c(O)c(=O)ccn12 [Example 101, 2-(3-chlorobenzyl)-9-hydroxy-1,8-dioxo-1,8-dihydro-2H-pyrido[1,2-a]pyrazine-4-carbaldehyde] | 10 to 100 |
| O=c1ccn2c(CO)cn(Cc3cccc(Cl)c3)c(=O)c2c1O [Example 102, 2-(3-chlorobenzyl)-9-hydroxy-4-hydroxymethyl-2H-pyrido[1,2-a]pyrazine-1,8-dione] | 10 to 100 |
| CC(O)c1cn(Cc2cccc(Cl)c2)c(=O)c2c(O)c(=O)ccn12 (centres unmarked) [Example 103, 2-(3-chlorobenzyl)-9-hydroxy-4-(1-hydroxyethyl)-2H-pyrido[1,2-a]pyrazine-1,8-dione] | 10 to 100 |
| CC(C)c1cn2ccn(Cc3cccc(Cl)c3)c(=O)c2c(O)c1=O [Example 104, 2-(3-chlorobenzyl)-9-hydroxy-7-isopropyl-2H-pyrido[1,2-a]pyrazine-1,8-dione hydrochloride] | 10 to 100 |
| CC(=O)c1cn(Cc2cccc(Cl)c2)c(=O)c2c(O)c(=O)ccn12 [Example 105, 4-acetyl-2-(3-chlorobenzyl)-9-hydroxy-2H-pyrido[1,2-a]pyrazine-1,8-dione] | 10 to 100 |
| Cn1cc2c(c(O)c1=O)C(=O)N(Cc1cccc(Cl)c1)CC2 [Example 106, 2-(3-chlorobenzyl)-8-hydroxy-6-methyl-2,3,4,6-tetrahydro-2,6-naphthyridine-1,7-dione] | 10 to 100 |
| N#Cc1cn(Cc2cccc(Cl)c2)c(=O)c2c(O)c(=O)ccn12 [Example 107, 2-(3-chlorobenzyl)-9-hydroxy-1,8-dioxo-1,8-dihydro-2H-pyrido[1,2-a]pyrazine-4-carbonitrile] | 10 to 100 |
| O=C1c2c(O)c(=O)ncn2CCN1Cc1cccc(Cl)c1 [Example 108, 2-(3-chlorobenzyl)-9-hydroxy-3,4-dihydro-2H-pyrazino[1,2-c]pyrimidine-1,8-dione] | 10 to 100 |
| CS(=O)(=O)Oc1c(=O)c(Br)cn2ccn(Cc3cccc(Cl)c3)c(=O)c12 [Example 109, 7-bromo-2-(3-chlorobenzyl)-1,8-dioxo-1,8-dihydro-2H-pyrido[1,2-a]pyrazin-9-yl methanesulfonate] | 100 to 1000 |
| O=C1c2c(O)c(=O)c(Br)cn2CC(O)N1Cc1cccc(Cl)c1 (centres unmarked) [Example 110, 7-bromo-2-(3-chlorobenzyl)-3,9-dihydroxy-3,4-dihydro-2H-pyrido[1,2-a]pyrazine-1,8-dione hydrochloride] | 100 to 1000 |
| O=C1c2c(O)c(=O)c3ccccc3n2CCN1Cc1cccc(Cl)c1 [Example 111, 3-(3-chlorobenzyl)-5-hydroxy-2,3-dihydro-1H-pyrazino[1,2-a]quinoline-4,6-dione] | 10 to 100 |
| O=c1c(-c2cccc(Cl)c2)cn2ccn(Cc3cccc(Cl)c3)c(=O)c2c1O [Example 112, 2-(3-chlorobenzyl)-7-(3-chlorophenyl)-9-hydroxy-2H-pyrido[1,2-a]pyrazine-1,8-dione hydrochloride] | 10 to 100 |
| O=c1c(-c2ccc(Cl)cc2)cn2ccn(Cc3cccc(Cl)c3)c(=O)c2c1O [Example 113, 2-(3-chlorobenzyl)-7-(4-chlorophenyl)-9-hydroxy-2H-pyrido[1,2-a]pyrazine-1,8-dione hydrochloride] | 10 to 100 |
| O=c1c(-c2ccccc2Cl)cn2ccn(Cc3cccc(Cl)c3)c(=O)c2c1O [Example 114, 2-(3-chlorobenzyl)-7-(2-chlorophenyl)-9-hydroxy-2H-pyrido[1,2-a]pyrazine-1,8-dione hydrochloride] | < 10 |
| O=c1c(-c2cccnc2)cn2ccn(Cc3cccc(Cl)c3)c(=O)c2c1O [Example 115, 2-(3-chlorobenzyl)-9-hydroxy-7-(pyridin-3-yl)-2H-pyrido[1,2-a]pyrazine-1,8-dione hydrochloride] | < 10 |
| O=c1c(-c2ccncc2)cn2ccn(Cc3cccc(Cl)c3)c(=O)c2c1O [Example 116, 2-(3-chlorobenzyl)-9-hydroxy-7-(pyridin-4-yl)-2H-pyrido[1,2-a]pyrazine-1,8-dione hydrochloride] | < 10 |
| O=c1c(-c2ccccn2)cn2ccn(Cc3cccc(Cl)c3)c(=O)c2c1O [Example 117, 2-(3-chlorobenzyl)-9-hydroxy-7-(pyridin-2-yl)-2H-pyrido[1,2-a]pyrazine-1,8-dione hydrochloride] | < 10 |
| CC(C)(C)C(O)c1cn2ccn(Cc3cccc(Cl)c3)c(=O)c2c(O)c1=O (centres unmarked) [Example 118, 2-(3-chlorobenzyl)-9-hydroxy-7-(1-hydroxy-2,2-dimethylpropyl)-2H-pyrido[1,2-a]pyrazine-1,8-dione hydrochloride] | 10 to 100 |
| O=c1c(-c2ccccc2)cn2c(CC3CCCCC3)cn(Cc3cccc(Cl)c3)c(=O)c2c1O [Example 119, 2-(3-chlorobenzyl)-4-cyclohexylmethyl-9-hydroxy-7-phenyl-2H-pyrido[1,2-a]pyrazine-1,8-dione hydrochloride] | 100 to 1000 |
| O=c1c(-c2ccco2)cn2ccn(Cc3cccc(Cl)c3)c(=O)c2c1O [Example 120, 2-(3-chlorobenzyl)-7-(furan-2-yl)-9-hydroxy-2H-pyrido[1,2-a]pyrazine-1,8-dione hydrochloride] | < 10 |
| Cn1cc2c(c(O)c1=O)C(=O)N(Cc1ccc(Cl)c(Cl)c1)CC2 [Example 121, 2-(3,4-dichlorobenzyl)-8-hydroxy-6-methyl-2,3,4,6-tetrahydro-2,6-naphthyridine-1,7-dione] | < 10 |
| Cn1cc2c(c(O)c1=O)C(=O)N(CCCc1c(F)cccc1Cl)CC2 [Example 122, 2-[3-(2-chloro-6-fluorophenyl)propyl]-8-hydroxy-6-methyl-2,3,4,6-tetrahydro-2,6-naphthyridine-1,7-dione] | < 10 |
